Laboratory results: EP2072509A1, “1-Aryl-1H-quinoline-2-ones: process for their production and their use as anti-inflammatory agents” (Bayer Schering Pharma Aktiengesellschaft, priority 2007, dated 2009)
pIC50: −log10 of the molar value.

Legend:
[1] = test system: cytokine IL-8; assay: Inhibition of LPS-triggered IL-8 secretion in THP-1 cells (ELISA of supernatant); type: cell-based; conditions: Homo sapiens
Experimental: The concentration of the cytokines was determined in the supernatant by means of commercially available ELISA kits.

[2] = target: ER; assay: Binding to ER (steroid receptor selectivity profile)
[3] = target: T1, glucocorticoid receptor (GR) (Homo sapiens, UniProt P04150); assay: Binding to recombinantly produced glucocorticoid receptor (cytosol of baculovirus-infected Sf9 cells, [3H]-dexamethasone as reference); conditions: recombinant GR, Sf9 cytosol preparations
T1 construct: made in house; host or cells: Sf9 cells infected with recombinant baculovirus (cytosol preparation)
T1 sequence (P04150 1-777): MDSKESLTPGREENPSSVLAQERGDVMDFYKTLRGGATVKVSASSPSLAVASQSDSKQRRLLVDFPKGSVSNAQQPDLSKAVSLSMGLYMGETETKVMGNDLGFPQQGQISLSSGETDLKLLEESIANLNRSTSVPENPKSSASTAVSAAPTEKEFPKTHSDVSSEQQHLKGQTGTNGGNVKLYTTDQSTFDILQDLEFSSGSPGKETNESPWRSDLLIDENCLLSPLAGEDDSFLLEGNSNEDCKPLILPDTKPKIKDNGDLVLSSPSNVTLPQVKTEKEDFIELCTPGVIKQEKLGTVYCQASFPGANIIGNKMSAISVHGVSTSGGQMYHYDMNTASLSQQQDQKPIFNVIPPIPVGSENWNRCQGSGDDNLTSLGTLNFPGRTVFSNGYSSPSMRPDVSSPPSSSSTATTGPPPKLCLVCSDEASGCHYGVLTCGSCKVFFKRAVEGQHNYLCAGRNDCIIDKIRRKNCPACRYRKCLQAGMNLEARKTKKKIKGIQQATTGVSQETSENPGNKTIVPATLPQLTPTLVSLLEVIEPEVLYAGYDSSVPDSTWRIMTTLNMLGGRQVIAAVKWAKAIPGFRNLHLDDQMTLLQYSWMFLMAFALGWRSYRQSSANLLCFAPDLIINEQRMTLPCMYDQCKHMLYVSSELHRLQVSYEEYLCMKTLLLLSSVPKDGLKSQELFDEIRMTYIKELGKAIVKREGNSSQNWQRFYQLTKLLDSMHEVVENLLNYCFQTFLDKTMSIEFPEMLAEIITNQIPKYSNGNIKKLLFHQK
Source text: (§1) The binding of the substances to the glucocorticoid receptor (GR) and other steroid hormone receptors (mineral corticoid receptor (MR), progesterone receptor (PR) and androgen receptor (AR)) is examined with the aid of recombinantly produced receptors. Cytosol preparations of Sf9 cells, which had been infected with recombinant baculoviruses, which code for the GR, are used for the binding studies. In comparison to reference substance [^3H]-dexamethasone, the substances show a high to very high affinity to GR.

[4] = target: T2, mineral corticoid receptor (MR) (Homo sapiens, UniProt P08235); assay: Binding to recombinantly produced mineral corticoid receptor
T2 construct: made in house
T2 sequence (P08235 1-984): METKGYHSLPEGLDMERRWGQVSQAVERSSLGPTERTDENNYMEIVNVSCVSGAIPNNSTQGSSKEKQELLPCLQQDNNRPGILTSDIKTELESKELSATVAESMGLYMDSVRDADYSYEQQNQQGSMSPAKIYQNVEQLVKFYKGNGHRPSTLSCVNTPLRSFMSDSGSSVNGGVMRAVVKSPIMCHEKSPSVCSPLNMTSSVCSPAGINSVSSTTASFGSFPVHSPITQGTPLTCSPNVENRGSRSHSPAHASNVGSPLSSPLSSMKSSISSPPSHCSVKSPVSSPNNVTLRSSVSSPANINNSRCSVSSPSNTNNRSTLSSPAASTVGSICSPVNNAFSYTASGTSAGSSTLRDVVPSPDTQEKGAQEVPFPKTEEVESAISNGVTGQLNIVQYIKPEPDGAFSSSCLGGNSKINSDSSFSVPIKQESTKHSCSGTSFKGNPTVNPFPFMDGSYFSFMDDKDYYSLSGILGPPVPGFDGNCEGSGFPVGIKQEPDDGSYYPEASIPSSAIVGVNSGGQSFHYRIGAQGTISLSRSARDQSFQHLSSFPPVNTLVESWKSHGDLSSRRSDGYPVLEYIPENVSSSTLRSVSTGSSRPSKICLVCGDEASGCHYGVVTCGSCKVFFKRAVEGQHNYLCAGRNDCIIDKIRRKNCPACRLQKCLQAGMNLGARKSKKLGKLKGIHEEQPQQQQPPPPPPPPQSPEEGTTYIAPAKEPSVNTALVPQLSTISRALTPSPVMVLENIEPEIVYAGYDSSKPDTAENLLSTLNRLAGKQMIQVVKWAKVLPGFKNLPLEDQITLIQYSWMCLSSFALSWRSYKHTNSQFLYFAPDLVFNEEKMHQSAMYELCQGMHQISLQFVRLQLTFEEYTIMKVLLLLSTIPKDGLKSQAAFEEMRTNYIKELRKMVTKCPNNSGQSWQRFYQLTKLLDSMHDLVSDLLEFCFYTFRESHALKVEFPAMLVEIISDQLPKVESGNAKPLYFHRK
Source text: as §1

[5] = target: T3, androgen receptor (AR) (Homo sapiens, UniProt P10275); assay: Binding to recombinantly produced androgen receptor
T3 construct: made in house
T3 sequence (P10275 1-920): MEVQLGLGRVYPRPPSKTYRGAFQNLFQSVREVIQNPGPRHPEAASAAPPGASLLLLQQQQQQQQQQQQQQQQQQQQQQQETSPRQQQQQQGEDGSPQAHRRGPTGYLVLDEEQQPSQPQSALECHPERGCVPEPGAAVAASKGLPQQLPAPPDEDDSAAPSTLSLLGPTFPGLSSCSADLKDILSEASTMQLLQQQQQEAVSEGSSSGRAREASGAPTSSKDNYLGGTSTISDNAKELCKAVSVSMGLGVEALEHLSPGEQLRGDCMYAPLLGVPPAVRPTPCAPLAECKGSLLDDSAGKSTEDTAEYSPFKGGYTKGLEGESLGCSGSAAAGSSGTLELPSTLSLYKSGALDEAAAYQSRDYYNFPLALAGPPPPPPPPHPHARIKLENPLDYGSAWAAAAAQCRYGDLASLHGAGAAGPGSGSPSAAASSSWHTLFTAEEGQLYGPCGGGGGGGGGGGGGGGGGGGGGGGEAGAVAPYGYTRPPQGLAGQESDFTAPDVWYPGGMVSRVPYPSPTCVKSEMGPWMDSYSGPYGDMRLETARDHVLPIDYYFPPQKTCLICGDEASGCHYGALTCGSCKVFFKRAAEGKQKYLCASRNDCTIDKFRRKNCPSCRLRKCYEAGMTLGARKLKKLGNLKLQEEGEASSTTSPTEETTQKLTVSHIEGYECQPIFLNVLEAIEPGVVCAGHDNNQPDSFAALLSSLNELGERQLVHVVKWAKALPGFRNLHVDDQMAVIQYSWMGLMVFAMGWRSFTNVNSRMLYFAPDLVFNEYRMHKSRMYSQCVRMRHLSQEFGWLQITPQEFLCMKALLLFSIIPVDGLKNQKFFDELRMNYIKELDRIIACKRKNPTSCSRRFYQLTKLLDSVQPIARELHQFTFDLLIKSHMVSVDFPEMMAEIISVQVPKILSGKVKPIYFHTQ
Source text: as §1

[6] = target: T4, progesterone receptor (PR) (Homo sapiens, UniProt P06401); assay: Binding to recombinantly produced progesterone receptor
T4 construct: made in house
T4 sequence (P06401 1-933): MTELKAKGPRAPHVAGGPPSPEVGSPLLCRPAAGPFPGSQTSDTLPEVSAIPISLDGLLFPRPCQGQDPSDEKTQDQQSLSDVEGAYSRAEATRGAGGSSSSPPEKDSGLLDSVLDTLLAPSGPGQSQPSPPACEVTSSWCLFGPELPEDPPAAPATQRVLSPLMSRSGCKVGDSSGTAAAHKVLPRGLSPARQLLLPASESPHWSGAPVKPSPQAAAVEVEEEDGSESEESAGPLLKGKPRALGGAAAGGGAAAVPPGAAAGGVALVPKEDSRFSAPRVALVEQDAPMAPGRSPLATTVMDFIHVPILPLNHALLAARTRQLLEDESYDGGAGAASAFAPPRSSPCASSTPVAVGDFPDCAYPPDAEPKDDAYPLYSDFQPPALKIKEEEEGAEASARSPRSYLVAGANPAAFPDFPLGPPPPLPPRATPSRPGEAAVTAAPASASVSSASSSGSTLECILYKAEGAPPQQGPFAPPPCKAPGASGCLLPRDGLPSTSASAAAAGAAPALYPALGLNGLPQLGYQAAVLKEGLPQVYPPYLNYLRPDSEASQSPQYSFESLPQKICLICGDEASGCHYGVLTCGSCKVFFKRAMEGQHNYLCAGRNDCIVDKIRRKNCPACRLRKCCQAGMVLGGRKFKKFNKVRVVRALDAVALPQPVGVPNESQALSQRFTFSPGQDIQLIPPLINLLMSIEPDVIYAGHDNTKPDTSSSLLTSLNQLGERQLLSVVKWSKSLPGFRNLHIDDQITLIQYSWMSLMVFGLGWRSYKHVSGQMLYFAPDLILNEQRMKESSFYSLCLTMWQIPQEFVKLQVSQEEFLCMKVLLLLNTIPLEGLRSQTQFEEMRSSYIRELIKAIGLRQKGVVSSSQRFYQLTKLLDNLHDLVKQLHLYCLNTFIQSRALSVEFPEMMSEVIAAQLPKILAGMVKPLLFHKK
Source text: as §1

| Structure (SMILES) | pIC50 ([1]; LPS-triggered IL-8 secretion, read-out: IC50(IL8)) | Emax ([1]; efficacy of IL-8 inhibition, LPS, read-out: eff. relative to dexamethasone) [%] | pIC50 [2] | pIC50 [3] | pIC50 [4] | pIC50 [5] | pIC50 [6] |
| --- | --- | --- | --- | --- | --- | --- | --- |
| COc1c(C(C)C)ccc2c1C(C)(C)CC(O)(C(F)(F)F)C2Nc1cccc2c1ccc(=O)n2-c1ccc(F)nc1 (stereo not shown) [Example 1, 5-{[2-Hydroxy-6-isopropyl-5-methoxy-4,4-dimethyl-2-(trifluoromethyl)-1,2,3,4-tetrahydronaphthalene-1-yl]amino}-1-(6-fluoropyridine-3-yl)-1H-quinoline-2-one] | 7.52 | 84.1 |  |  |  |  |  |
| CC(C)c1ccc2c(c1O)C(C)(C)CC(O)(C(F)(F)F)C2Nc1cccc2c1ccc(=O)n2-c1ccc(F)nc1 (stereo not shown) [Example 2, 5-{[2,5-Dihydroxy-6-isopropyl-4,4-dimethyl-2-(trifluoromethyl)-1,2,3,4-tetrahydronaphthalene-1-yl]amino}-1-(6-fluoropyridine-3-yl)-1H-quinoline-2-one] |  |  | < 6.00 | 7.49 | < 6.00 | < 6.00 | < 6.00 |
